From BindingDB's records for patent US12421225 (Kaken Pharmaceutical Co., 2025)

Target: Sodium channel protein type 9 subunit alpha (Homo sapiens, UniProt Q15858)
Assay: Human Nav1.7 Inhibitory Activity Evaluation
Description: The amount of current through human Nav1.7 was recorded using a fully automatic patch clamp device QPatch16X (Sophion Biosciences) at room temperature. As the extracellular solution, the solution of 145 mM NaCl, 4 mM KCl, 1 mM MgCl2, 2 mM CaCl2, 10 mM Glucose, 10 mM 4-(2-hydroxyethyl)-1-piperazine ethanesulfonic acid (HEPES) at pH 7.4 was used. As the intracellular solution, the solution of 135 mM CsF, ⅕ mM glycol ether diaminetetraacetic acid (EGTA)/CsOH, 10 mM HEPES, 10 mM NaCl at pH 7.3 was used. The test compounds were dissolved in dimethyl sulfoxide (DMSO) and diluted with the extracellular solution to attain the DMSO concentration of 0.1% at the time of assay. The current response was obtained at a sampling frequency of 25 kHz, and noise was removed with a 3 kHz low-pass filter. The holding potential was −100 mV. Correction of the leakage current was carried out by applying a step pulse of −120 mV before the test pulse. In order to investigate inhibitory action of the test compound, the following test pulse was given: Namely, after depolarizing pulse of −10 mV was applied for 50 milliseconds, it was fixed at −120 mV for 500 milliseconds; a potential at which about 30-40% of the channel was inactivated was maintained for 15 seconds, then fixed again at −120 mV for 100 milliseconds, and finally a −10 mV depolarization pulse was given for 50 milliseconds. Test pulses were given before and after the test compound addition.

Chain of Sodium channel protein type 9 subunit alpha (Q15858 whole entry): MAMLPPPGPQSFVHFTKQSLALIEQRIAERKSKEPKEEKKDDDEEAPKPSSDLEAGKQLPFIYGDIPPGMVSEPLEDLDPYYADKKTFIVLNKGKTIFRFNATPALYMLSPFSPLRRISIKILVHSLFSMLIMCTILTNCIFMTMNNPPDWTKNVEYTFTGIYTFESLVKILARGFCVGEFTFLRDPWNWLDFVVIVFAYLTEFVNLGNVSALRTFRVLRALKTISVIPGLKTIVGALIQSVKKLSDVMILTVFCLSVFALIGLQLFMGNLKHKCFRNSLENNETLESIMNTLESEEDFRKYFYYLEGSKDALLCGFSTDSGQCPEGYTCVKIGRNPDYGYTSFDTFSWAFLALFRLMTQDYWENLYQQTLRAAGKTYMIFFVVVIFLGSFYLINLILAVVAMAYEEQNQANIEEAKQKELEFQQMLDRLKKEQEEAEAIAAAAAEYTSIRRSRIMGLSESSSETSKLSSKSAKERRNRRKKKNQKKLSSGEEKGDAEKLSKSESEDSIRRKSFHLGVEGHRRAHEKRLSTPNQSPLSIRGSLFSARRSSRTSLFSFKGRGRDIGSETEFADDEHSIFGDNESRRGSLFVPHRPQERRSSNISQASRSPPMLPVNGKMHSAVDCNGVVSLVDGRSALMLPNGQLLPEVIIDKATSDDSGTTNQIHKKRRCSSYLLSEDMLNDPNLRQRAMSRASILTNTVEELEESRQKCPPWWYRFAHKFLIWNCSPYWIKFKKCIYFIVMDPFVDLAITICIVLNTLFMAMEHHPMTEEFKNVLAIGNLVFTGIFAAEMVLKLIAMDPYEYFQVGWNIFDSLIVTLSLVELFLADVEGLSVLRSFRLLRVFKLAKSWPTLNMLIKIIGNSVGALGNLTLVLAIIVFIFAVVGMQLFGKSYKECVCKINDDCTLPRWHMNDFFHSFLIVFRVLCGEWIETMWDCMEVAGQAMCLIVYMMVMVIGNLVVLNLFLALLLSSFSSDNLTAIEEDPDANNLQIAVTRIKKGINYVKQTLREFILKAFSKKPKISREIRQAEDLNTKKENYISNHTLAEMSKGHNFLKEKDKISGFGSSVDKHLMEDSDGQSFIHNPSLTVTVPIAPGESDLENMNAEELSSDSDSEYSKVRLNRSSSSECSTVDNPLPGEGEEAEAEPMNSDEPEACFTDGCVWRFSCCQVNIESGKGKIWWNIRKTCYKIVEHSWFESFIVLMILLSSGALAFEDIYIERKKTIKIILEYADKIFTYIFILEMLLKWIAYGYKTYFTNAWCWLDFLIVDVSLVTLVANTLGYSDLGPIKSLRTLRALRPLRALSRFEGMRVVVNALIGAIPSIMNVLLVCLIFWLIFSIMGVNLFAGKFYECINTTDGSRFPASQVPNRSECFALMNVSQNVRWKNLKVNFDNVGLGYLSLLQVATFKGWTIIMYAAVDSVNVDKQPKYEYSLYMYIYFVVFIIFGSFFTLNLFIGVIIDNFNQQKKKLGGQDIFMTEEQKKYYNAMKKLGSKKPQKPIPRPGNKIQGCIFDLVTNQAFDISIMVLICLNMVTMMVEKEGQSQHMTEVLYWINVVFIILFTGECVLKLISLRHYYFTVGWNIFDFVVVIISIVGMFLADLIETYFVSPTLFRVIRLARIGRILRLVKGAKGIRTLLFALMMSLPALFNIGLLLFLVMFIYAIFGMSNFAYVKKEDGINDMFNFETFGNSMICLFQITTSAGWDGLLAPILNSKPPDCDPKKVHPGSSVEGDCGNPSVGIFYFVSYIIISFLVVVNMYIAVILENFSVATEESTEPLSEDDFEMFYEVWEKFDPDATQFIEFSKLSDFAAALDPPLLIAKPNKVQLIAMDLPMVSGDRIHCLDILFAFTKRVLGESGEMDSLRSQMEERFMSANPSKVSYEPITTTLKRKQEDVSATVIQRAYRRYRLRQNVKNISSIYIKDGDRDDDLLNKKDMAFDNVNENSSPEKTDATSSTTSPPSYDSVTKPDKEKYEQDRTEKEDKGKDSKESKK

SMILES | IC50
N#Cc1ccc2c(c1)C[C@@H](NC(=O)c1cc3n(n1)CC[C@@H](COCC1(F)CC1)O3)CO2 (single isomer, unassigned; isomer B) [US12421225, Example 552 (isomer B)] | ≤ 10 µM
N#Cc1ccc2c(c1)C[C@@H](NC(=O)c1cc3n(n1)C[C@@H](CCCOC(F)(F)F)O3)CO2 (single isomer, unassigned; isomer B) [US12421225, Example 247 (isomer B)] | < 1 µM
O=C(N[C@H]1COc2ccc(Br)cc2C1)c1cc2n(n1)CC(C(F)(F)F)O2 (some centres not stated) [US12421225, Example 445] | < 1 µM
O=C(N[C@H]1COc2ccc(CC(F)F)cc2C1)c1cc2n(n1)CC[C@@H](COCC(F)(F)F)O2 (single isomer, unassigned; isomer B) [US12421225, Example 127 (isomer B)] | < 1 µM
N#Cc1ccc2c(c1)C[C@@H](NC(=O)c1cc3n(n1)CCC(CC1CC1)O3)CO2 (single isomer, unassigned) [US12421225, Example 97 (isomer B)] | < 1 µM
CC[C@@H]1CCn2nc(C(=O)N[C@H]3COc4ccc(C#N)cc4C3)cc2O1 (single isomer, unassigned; isomer B) [US12421225, Example 92 (isomer B)] | < 1 µM
O=C(N[C@H]1COc2ccc(-c3ccccn3)cc2C1)c1cc2n(n1)CC[C@@H](COCC1CC1)O2 (single isomer, unassigned; isomer B) [US12421225, Example 111 (isomer B)] | < 1 µM
